Results reported in patent US9107396B2, “Stabilized synthetic brood pheromone and race-specific ratios of components for manipulating the behavior and physiology of honey bees” (OMS Investments, Inc., priority 2006, dated 2015).

Test: Chemical stability of simplified brood pheromone ester blends exposed to air, capillary gas chromatography
Type: physicochemical
Settings: for time for which the component remained intact: with antioxidant stabilizer tertiary-butylhydroquinone; for proportional composition of the total blend at start: two-week test; for percentage composition at start / percentage composition after 72 weeks: unstabilized five-component ethyl ester blend; for percentage composition at start: 72-week test
Protocol: Short-term and long-term stability studies were conducted, with simplified blends of potentially unstable brood pheromone components mixed in approximately the same proportions as in Example 1. Short-term evaluation for a two-week duration was done on blends of methyl oleate, methyl linoleate and methyl linolenate, and ethyl oleate, ethyl linoleate and ethyl linolenate, each with and without tertiary-butylhydroquinone. Twenty-week tests were done with identical blends as for the two-week experiments, but 72-week tests had methyl and ethyl palmitate and stearate added in the appropriate proportions to their respective blends. Approximately 250 mg of a blend was placed in a 4 mL (15×45 mm) plastic vial (Chromatographic Specialties) fitted with a diffusion insert screw cap (Agilent Technologies) with a 1 mm diameter hole to allow air circulation over the sample. All blends were continuously held at a constant temperature of 30° C.
For analysis by capillary gas chromatography, approximately 1 mg of a blend was dissolved in 1 mL of diethyl ether, and a 1 μL aliquot of each extract was analyzed. Analyses were done at time zero and after the given duration of exposure to air at 30° C., using a Hewlett Packard HP5890 gas chromatograph equipped with a flame ionization detector and a 30 m long BPX-70 capillary column (J&W Scientific). The injector and detector temperatures were 260° C. and 285° C., respectively. The temperature program was 80° C. rising at 5° C. per min for 24 min to 200° C., and then rising at 20° C. per min for 3 min to 260° C.
Two-week results are given for methyl and ethyl esters (FIGS. 1 and 2), while long-term 20-week and 72-week results are given for only ethyl esters (FIGS. 3 and 4). Long-term results for methyl esters were virtually identical to those for the ethyl esters.

[1] = unstabilized blend, after two weeks exposure to air
[2] = unstabilized blend, before exposure

**Q.** With `CCCCC/C=C\C/C=C\CCCCCCCC(=O)OCC` [ethyl linoleate] as the molecule, how does the “decrease in amount of component in the unstabilized blend” value (“decrease in amount of component” for short) (2 weeks) read?
**A.** 74%

**Q.** And the “component remaining in the unstabilized blend after 20 weeks” value (3360 h)?
**A.** no ethyl linoleate

**Q.** What about the “component remaining in the unstabilized blend after 72 weeks” value (12096 h) of the same molecule?
**A.** complete breakdown

**Q.** And the “time for which the component remained intact” value?
**A.** 72 weeks

**Q.** With `CC/C=C\C/C=C\C/C=C\CCCCCCCC(=O)OCC` [ethyl linolenate] as the molecule, how does the “decrease in amount of component” value [1] read?
**A.** 94%

**Q.** What about the “component remaining in the unstabilized blend after 20 weeks” value (unstabilized ethyl ester blend, 20 weeks) of the same molecule?
**A.** no ethyl linolenate remained

**Q.** And the “component remaining in the unstabilized blend after 72 weeks” value (unstabilized ethyl ester blend, 72 weeks)?
**A.** complete breakdown

**Q.** And the “time for which the component remained intact” value?
**A.** 72 weeks

**Q.** For `CCCCCCCC/C=C\CCCCCCCC(=O)OCC` [ethyl oleate], which “proportional composition of the total blend after two weeks” value [1] is on record?
**A.** 66%

**Q.** What about the “proportional composition of the total blend at start” value [2] of the same molecule?
**A.** 40%

**Q.** What about the “proportion of the total blend at start” value (unstabilized ethyl ester blend, 20-week test, before exposure) of the same molecule?
**A.** 37%

**Q.** What about the “proportion of the total blend after 20 weeks” value (unstabilized ethyl ester blend, after 20 weeks) of the same molecule?
**A.** 43%

**Q.** What about the “percentage composition at start” value (before exposure) of the same molecule?
**A.** 24%

**Q.** What about the “percentage composition after 72 weeks” value of the same molecule?
**A.** 10%

**Q.** What about the “time for which the component remained intact” value of the same molecule?
**A.** 72 weeks

**Q.** Which “percentage composition at start” value (before exposure) does the source give for `CCCCCCCCCCCCCCCC(=O)OCC` [ethyl palmitate] here?
**A.** 8%

**Q.** What about the “percentage composition after 72 weeks” value of the same molecule?
**A.** 20%

**Q.** With `CCCCCCCCCCCCCCCCCC(=O)OCC` [ethyl stearate] as the molecule, how does the “percentage composition at start” value (before exposure) read?
**A.** 23%

**Q.** What about the “percentage composition after 72 weeks” value of the same molecule?
**A.** 57%

**Q.** For `CCCCC/C=C\C/C=C\CCCCCCCC(=O)OC` [methyl linoleate], which “decrease in amount of component” value (2 weeks) is on record?
**A.** 85%

**Q.** And the “time for which the component remained intact” value?
**A.** 72 weeks

**Q.** With `CC/C=C\C/C=C\C/C=C\CCCCCCCC(=O)OC` [methyl linolenate] as the molecule, how does the “decrease in amount of component” value (2 weeks) read?
**A.** 90%

**Q.** And the “time for which the component remained intact” value?
**A.** 72 weeks

**Q.** With `CCCCCCCC/C=C\CCCCCCCC(=O)OC` [methyl oleate] as the molecule, how does the “proportional composition of the total blend after two weeks” value [1] read?
**A.** 82%

**Q.** And the “proportional composition of the total blend at start” value [2]?
**A.** 48%

**Q.** What about the “time for which the component remained intact” value of the same molecule?
**A.** 72 weeks
